Reference: article PMC12320299 (Chemical Science, 2025)

Legend:
[1] = Total 101Ru content in tumour, organs and blood by ICP-MS; type: in vivo, BALB/c mice; conditions: 4 h after last injection, 10 mg kg^−1 i.p.
Method: Furthermore, tumour, organs and blood of the 1a-treated mice were collected 4 h after the last injection. […] Intraperitoneally administered compounds are primarily absorbed through the portal circulation, which can lead to a substantial liver exposure.[71] […] This paralleled earlier findings of other metal(arenes) in this tumour model.[72]
Animals. All experiments were carried out with male Balb/c mice according to the regulation of the Ethics Committee for the Care and Use of Laboratory Animals at the Medical University Vienna (BMWF-2022-0.770.291), the guidelines from the Austrian Animal Science Association and the Federation of European Laboratory Animal Science Associations (FELASA). The animals were kept in a pathogen-free conditions, controlled environment with 12 h light–dark cycle with ad libitum access to food and water. Every procedure was done in a laminar airflow […]
Treatment. CT-26 cells ([…] in 50 μL serum-free medium) were injected subcutaneously (s.c.) into the right flank of ten– to eleven-week-old male Balb/c mice. Three days after cell injection, all compounds (dissolved in 10% DMSO in water) were administered […]
1b/2b. Regarding anticancer activity experiments, mice were treated on 5 consecutive days over 2 weeks. Four hours after the last treatment 1a-treated mice were sacrificed and analysed for ruthenium levels in tissue via ICP-MS measurements. […]
Missing data points were imputed. Permutation-based FDR was set to 0.05 and S0 = 0.1 for multi-parameter corrected significance testing of protein regulation. […]
Resources (Version 6.8)13 and STRING (Version 10.0).14
Additionally, statistical analysis of protein regulations from the in vivo samples was performed using the LIMMA R-package.15 P-values where adjusted according to Benjamini-Hochberg16 and a gene set variation analysis was performed (GSVA).17 Protein Sets where constructed using the molecular signature database.18
Total metal content in organs harvested from 1a-treated mice was determined by inductively coupled plasma mass spectrometry (ICP-MS) on an Agilent 7800 instrument and Agilent SPS 4 autosampler using the following parameters: RF power 1550, carrier gas (Ar) 1.08 L∙min-1, plasma gas (Ar) 15 L∙min-1, dwell time 0.1 s, 12 replicates with 100 sweeps. A […]
by Agilent MassHunter (Version C.01.04) software.
The lower limit of quantification of the method was 0.071 µg L-1. Organs, tumour and blood were digested with nitric acid (20% w/w) and diluted with ultrapure water to reach a final nitric acid concentration <4%.

[2] = system: SW480 cancer cells; assay: Cell cycle analysis by flow cytometry (propidium iodide); type: cell-based, human; conditions: 24 h; 1a 12.5 to 50 nM; gemcitabine 10 nM
[3] = system: p21; assay: p21 expression, western blotting and immunofluorescence, SW480; type: cell-based, human; conditions: 24 h, 1 μM
Method: overnight at –20 °C. The pellet containing the nuclei was incubated with a hypertonic solution (10 mM Tris-HCl, 1 mM EDTA and 0.5 M NaCl) and subsequently diluted 1:10 with NP-40 buffer (10 mm Tris-HCl, 1 mm EDTA and 0.5% Triton X-100) containing protease inhibitors (1% PMSF, Sigma, and 1% protease and phosphatase inhibitor cocktail, Roche). After centrifugation (960 g, 5 min), the soluble nuclear (NE) proteins were also transferred into new tubes containing ice-cold ethanol (1 : 5, HPLC grade) and precipitated overnight at –20 °C.
The precipitated proteins were finally pelleted by centrifugation (5000 g, 30 min, 4 °C), the solution was decanted and the pellet dried under vacuum.
Samples were then dissolved in lysis buffer (8 M urea, 20% SDS, 1 M TEAB at pH 7.55) and denatured at 95 °C for 5 min. The protein amount was then quantified using a BCA assay. A total of 20 µg protein per sample was used for processing. Proteins were reduced with 50 µL of DTT (64 mM) and carbamidomethylated with 50 µL of iodoacetamide (486 mM). […]
and allowed to adhere overnight. […] For whole cell lysates, samples were collected, proteins isolated, and Western blotting performed as described in detail previously.5 In brief, protein concentration was determined using the Micro BCA™ Protein Assay Kit (Thermo Fisher Scientific, Waltham, MA, USA). […]

## CCC1=C2[O][Ru][O]C2(n2cccn2)c2ccccc2C1=O.Cc1ccc(C(C)C)cc1 (stereo not drawn) [Compound 1a, [(3-ethyl-4-oxo-(pyrazolyl)-dihydronaphthalene)(cymene)ruthenium(II)]]
[1]
  101Ru content, blood clot: < 0.4 mg/kg
  101Ru content, blood serum: < 0.4 mg/kg
  101Ru content, liver: 10 ± 1 mg/kg
  101Ru content, tumour: 0.9 ± 0.7 mg/kg
[2]
  cell cycle distribution: dose-dependent increase in the S and G2/M phases
[3]
  p21 expression, SW480: significantly reduced p21 expression
